Measurements from ChEMBL document CHEMBL1201862, “PubChem BioAssay data set” (2004).
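In this assay, cells in 96-well plates receive the compound at five concentrations for 48 hours. Endpoints are linearly interpolated between the surrounding concentrations. GI50: concentration for 50% inhibition of growth.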 The source made the active and inactive calls. Rule as the data show it: active = GI50 up to about 1.1 µM and inactive = higher.

Assays:
Experiment in all cases: growth of human tumour cells (NCI), 48 h
786-0 = tested on: 786-0
A549 = tested on: A549
ACHN = tested on: ACHN
BT-549 = tested on: BT-549
CAKI-1 = tested on: CAKI-1
CCRF-CEM = tested on: CCRF-CEM
COLO 205 = tested on: COLO 205
DU-145 = tested on: DU-145
EKVX = tested on: EKVX
HCC 2998 = tested on: HCC 2998
HCT-116 = tested on: HCT-116
HCT-15 = tested on: HCT-15
HL-60 = tested on: HL-60
HOP-62 = tested on: HOP-62
HOP-92 = tested on: HOP-92
HT-29 = tested on: HT-29
Hs-578T = tested on: Hs-578T
IGROV-1 = tested on: IGROV-1
K562 = tested on: K562
KM12 = tested on: KM12
LOX IMVI = tested on: LOX IMVI
M14 = tested on: M14
MCF7 = tested on: MCF7
MDA-MB-231 = tested on: MDA-MB-231
MDA-MB-435 = tested on: MDA-MB-435
MDA-N = tested on: MDA-N
MOLT-4 = tested on: MOLT-4
Malme-3M = tested on: Malme-3M
NCI-H226 = tested on: NCI-H226
NCI-H23 = tested on: NCI-H23
NCI-H522 = tested on: NCI-H522
NCI/ADR-RES = tested on: NCI/ADR-RES
OVCAR-3 = tested on: OVCAR-3
OVCAR-4 = tested on: OVCAR-4
OVCAR-5 = tested on: OVCAR-5
OVCAR-8 = tested on: OVCAR-8
PC-3 = tested on: PC-3
RPMI-8226 = tested on: RPMI-8226
RXF 393 = tested on: RXF 393
SF-268 = tested on: SF-268
SF-295 = tested on: SF-295
SF-539 = tested on: SF-539
SK-MEL-28 = tested on: SK-MEL-28
SK-MEL-2 = tested on: SK-MEL-2
SK-MEL-5 = tested on: SK-MEL-5
SK-OV-3 = tested on: SK-OV-3
SN12C = tested on: SN12C
SNB-19 = tested on: SNB-19
SNB-75 = tested on: SNB-75
SR = tested on: SR
SW-620 = tested on: SW-620
T47D = tested on: T47D
TK-10 = tested on: TK-10
U-251 = tested on: U-251
UACC-257 = tested on: UACC-257
UACC-62 = tested on: UACC-62
UO-31 = tested on: UO-31
A498 = tested on: A498
NCI-H460 = tested on: NCI-H460

For OCc1cccc(Nc2nc(O)c3[nH]cnc3n2)c1, the GI50 (786-0) was > 100 µM (inactive), the GI50 (A549) was > 100 µM (inactive) and the GI50 (ACHN) was > 100 µM (inactive). For the same compound, the GI50 (BT-549) was > 100 µM (inactive), the GI50 (CAKI-1) was > 100 µM (inactive) and the GI50 (CCRF-CEM) was > 100 µM (inactive). For the same compound, the GI50 (COLO 205) was > 100 µM (inactive), the GI50 (DU-145) was > 100 µM (inactive) and the GI50 (EKVX) was > 100 µM (inactive). The GI50 (HCC 2998) was > 100 µM (inactive), the GI50 (HCT-116) was > 100 µM (inactive) and the GI50 (HCT-15) was greater than 100 µM. For the same compound, the GI50 (HL-60) was > 100 µM (inactive), the GI50 (HOP-62) was > 100 µM (inactive) and the GI50 (HOP-92) was > 100 µM (inactive). For the same compound, the GI50 (HT-29) was > 100 µM (inactive), the GI50 (Hs-578T) was > 100 µM (inactive) and the GI50 (IGROV-1) was > 100 µM (inactive). The GI50 (K562) was > 100 µM (inactive), the GI50 (KM12) was > 100 µM (inactive) and the GI50 (LOX IMVI) was > 100 µM (inactive). For the same compound, the GI50 (M14) was > 100 µM (inactive), the GI50 (MCF7) was > 100 µM (inactive) and the GI50 (MDA-MB-231) was > 100 µM (inactive). The GI50 (MDA-MB-435) was > 100 µM (inactive), the GI50 (MDA-N) was > 100 µM (inactive) and the GI50 (MOLT-4) was > 100 µM (inactive). The GI50 (Malme-3M) was > 100 µM (inactive), the GI50 (NCI-H226) was > 100 µM (inactive) and the GI50 (NCI-H23) was > 100 µM (inactive). For the same compound, the GI50 (NCI-H522) was > 100 µM (inactive), the GI50 (NCI/ADR-RES) was > 100 µM (inactive) and the GI50 (OVCAR-3) was > 100 µM (inactive). The GI50 (OVCAR-4) was > 100 µM (inactive), the GI50 (OVCAR-5) was > 100 µM (inactive) and the GI50 (OVCAR-8) was > 100 µM (inactive). For the same compound, the GI50 (PC-3) was > 100 µM (inactive), the GI50 (RPMI-8226) was > 100 µM (inactive) and the GI50 (RXF 393) was > 100 µM (inactive). The GI50 (SF-268) was > 100 µM (inactive), the GI50 (SF-295) was > 100 µM (inactive) and the GI50 (SF-539) was > 100 µM (inactive). The GI50 (SK-MEL-28) was > 100 µM (inactive), the GI50 (SK-MEL-2) was > 100 µM (inactive) and the GI50 (SK-MEL-5) was > 100 µM (inactive). For the same compound, the GI50 (SK-OV-3) was > 100 µM (inactive), the GI50 (SN12C) was > 100 µM (inactive) and the GI50 (SNB-19) was > 100 µM (inactive). For the same compound, the GI50 (SNB-75) was > 100 µM (inactive), the GI50 (SR) was > 100 µM (inactive) and the GI50 (SW-620) was > 100 µM (inactive). For the same compound, the GI50 (T47D) was > 100 µM (inactive), the GI50 (TK-10) was > 100 µM (inactive) and the GI50 (U-251) was > 100 µM (inactive). For the same compound, the GI50 (UACC-257) was > 100 µM (inactive), the GI50 (UACC-62) was > 100 µM (inactive) and the GI50 (UO-31) was > 100 µM (inactive).
In the case of CCCCNN, the GI50 (786-0) is reported as > 100 µM (inactive), the GI50 (A498) is reported as > 100 µM (inactive) and the GI50 (A549) is reported as > 100 µM (inactive). The GI50 (ACHN) was > 100 µM (inactive), the GI50 (BT-549) was > 100 µM (inactive) and the GI50 (CAKI-1) was > 100 µM (inactive). The GI50 (CCRF-CEM) was 43 µM (inactive), the GI50 (COLO 205) was > 100 µM (inactive) and the GI50 (DU-145) was > 100 µM (inactive). For the same compound, the GI50 (EKVX) was > 100 µM (inactive), the GI50 (HCT-116) was > 100 µM (inactive) and the GI50 (HCT-15) was greater than 100 µM. The GI50 (HL-60) was > 100 µM (inactive), the GI50 (HOP-62) was > 100 µM (inactive) and the GI50 (HT-29) was > 100 µM (inactive). For the same compound, the GI50 (Hs-578T) was > 100 µM (inactive), the GI50 (IGROV-1) was > 100 µM (inactive) and the GI50 (K562) was > 100 µM (inactive). The GI50 (KM12) was > 100 µM (inactive), the GI50 (LOX IMVI) was > 100 µM (inactive) and the GI50 (M14) was > 100 µM (inactive). For the same compound, the GI50 (MCF7) was > 100 µM (inactive), the GI50 (MDA-MB-231) was > 100 µM (inactive) and the GI50 (MDA-MB-435) was > 100 µM (inactive). For the same compound, the GI50 (MDA-N) was > 100 µM (inactive), the GI50 (MOLT-4) was > 100 µM (inactive) and the GI50 (Malme-3M) was > 100 µM (inactive). For the same compound, the GI50 (NCI-H226) was > 100 µM (inactive), the GI50 (NCI-H23) was > 100 µM (inactive) and the GI50 (NCI-H522) was 65.3 µM (inactive). The GI50 (NCI/ADR-RES) was > 100 µM (inactive), the GI50 (OVCAR-3) was > 100 µM (inactive) and the GI50 (OVCAR-4) was > 100 µM (inactive). The GI50 (OVCAR-5) was > 100 µM (inactive), the GI50 (OVCAR-8) was > 100 µM (inactive) and the GI50 (PC-3) was > 100 µM (inactive). The GI50 (RPMI-8226) was > 100 µM (inactive), the GI50 (RXF 393) was > 100 µM (inactive) and the GI50 (SF-295) was > 100 µM (inactive). For the same compound, the GI50 (SK-MEL-28) was > 100 µM (inactive), the GI50 (SK-MEL-2) was > 100 µM (inactive) and the GI50 (SK-MEL-5) was 95.7 µM (inactive). For the same compound, the GI50 (SK-OV-3) was > 100 µM (inactive), the GI50 (SN12C) was > 100 µM (inactive) and the GI50 (SNB-19) was > 100 µM (inactive). The GI50 (SNB-75) was > 100 µM (inactive), the GI50 (SR) was > 100 µM (inactive) and the GI50 (SW-620) was > 100 µM (inactive). The GI50 (T47D) was > 100 µM (inactive), the GI50 (TK-10) was > 100 µM (inactive) and the GI50 (U-251) was > 100 µM (inactive). For the same compound, the GI50 (UACC-257) was > 100 µM (inactive), the GI50 (UACC-62) was > 100 µM (inactive) and the GI50 (UO-31) was > 100 µM (inactive).
In the case of N#Cc1c(NC(=S)Nc2ccccc2)sc2c1CCCC2, the GI50 (786-0) is reported as > 100 µM (inactive), the GI50 (A498) is reported as > 100 µM (inactive) and the GI50 (ACHN) is reported as > 100 µM (inactive). For the same compound, the GI50 (BT-549) was > 100 µM (inactive), the GI50 (CAKI-1) was > 100 µM (inactive) and the GI50 (COLO 205) was > 100 µM (inactive). The GI50 (DU-145) was > 100 µM (inactive), the GI50 (EKVX) was > 100 µM (inactive) and the GI50 (HCC 2998) was > 100 µM (inactive). The GI50 (HCT-116) was > 100 µM (inactive), the GI50 (HCT-15) was greater than 100 µM and the GI50 (HL-60) was > 100 µM (inactive). The GI50 (HOP-62) was > 100 µM (inactive), the GI50 (HT-29) was > 100 µM (inactive) and the GI50 (Hs-578T) was > 100 µM (inactive). For the same compound, the GI50 (IGROV-1) was > 100 µM (inactive), the GI50 (K562) was > 100 µM (inactive) and the GI50 (KM12) was > 100 µM (inactive). For the same compound, the GI50 (LOX IMVI) was > 100 µM (inactive), the GI50 (MCF7) was > 100 µM (inactive) and the GI50 (MDA-MB-231) was > 100 µM (inactive). The GI50 (MDA-MB-435) was > 100 µM (inactive), the GI50 (MDA-N) was > 100 µM (inactive) and the GI50 (MOLT-4) was > 100 µM (inactive). For the same compound, the GI50 (Malme-3M) was > 100 µM (inactive), the GI50 (NCI-H226) was > 100 µM (inactive) and the GI50 (NCI-H23) was > 100 µM (inactive). The GI50 (NCI-H460) was > 100 µM (inactive), the GI50 (NCI-H522) was > 100 µM (inactive) and the GI50 (NCI/ADR-RES) was > 100 µM (inactive). The GI50 (OVCAR-3) was > 100 µM (inactive), the GI50 (OVCAR-4) was > 100 µM (inactive) and the GI50 (OVCAR-5) was > 100 µM (inactive). For the same compound, the GI50 (OVCAR-8) was > 100 µM (inactive), the GI50 (PC-3) was > 100 µM (inactive) and the GI50 (RPMI-8226) was > 100 µM (inactive). For the same compound, the GI50 (RXF 393) was > 100 µM (inactive), the GI50 (SF-268) was > 100 µM (inactive) and the GI50 (SF-295) was > 100 µM (inactive). The GI50 (SK-MEL-28) was > 100 µM (inactive), the GI50 (SK-MEL-2) was > 100 µM (inactive) and the GI50 (SK-MEL-5) was > 100 µM (inactive). For the same compound, the GI50 (SN12C) was > 100 µM (inactive), the GI50 (SNB-19) was > 100 µM (inactive) and the GI50 (SNB-75) was > 100 µM (inactive). For the same compound, the GI50 (SR) was > 100 µM (inactive), the GI50 (SW-620) was > 100 µM (inactive) and the GI50 (T47D) was > 100 µM (inactive). The GI50 (TK-10) was > 100 µM (inactive), the GI50 (U-251) was > 100 µM (inactive) and the GI50 (UACC-257) was > 100 µM (inactive). The GI50 (UACC-62) was 94.2 µM (inactive) and the GI50 (UO-31) was > 100 µM (inactive).
